Assay results as given in ChEMBL document CHEMBL4699665, “Discovery of ANT3310, a Novel Broad-Spectrum Serine β-Lactamase Inhibitor of the Diazabicyclooctane Class, Which Strongly Potentiates Meropenem Activity against Carbapenem-Resistant Enterobacterales and Acinetobacter baumannii” (J Med Chem, 2020).

What was measured:
[1] = Inhibition of beta lactamase AmpC in Enterobacter cloacae assessed as decrease in enzyme activity using nitrocefin as substrate preincubated for 10 mins followed by substrate addition measured for 10 mins by fluorescence plate reader analysis
[2] = Inhibition of beta lactamase OXA-48 in Enterobacter cloacae assessed as decrease in enzyme activity using nitrocefin as substrate preincubated for 10 mins followed by substrate addition measured for 10 mins by fluorescence plate reader analysis
[3] = Intrinsic clearance in human hepatocytes assessed per million cells; assay type: ADME, cell-based, Hepatocyte; settings: read-out: CLH
[4] = Plasma protein binding in rat assessed as fraction unbound by LC-MS/MS analysis; assay type: ADME, cell-free
Klebsiella pneumoniae [5] = assay: Antibacterial activity against Klebsiella pneumoniae expressing SHV-11/OXA-181 by broth microdilution method; assay type: functional
[6] = Stability in mouse plasma assessed as parent compound remaining after 1 hr; assay type: ADME, cell-free; settings: read-out: Stabilty
Acinetobacter baumannii [7] = assay: Inhibition of beta lactamase OXA in carbapenem-resistant Acinetobacter baumannii assessed as meropenem maximum concentration required for antibacterial activity at 4 ug/ml by broth microdilution method (Rvb > 32 ug/ml); settings: dose 4.0 µg/ml
[8] = Volume of distribution in rat at 1 mg/kg, iv; assay type: ADME, organism-based; settings: in vivo
Klebsiella pneumoniae [9] = assay: Potentiation of meropenem-induced antibacterial activity against Klebsiella pneumoniae expressing TEM-1/SHV-11/KPC-3 assessed as meropenem MIC at 4 ug/ml by broth microdilution method (reference value: 128 ug/ml); assay type: functional; settings: dose 4 µg/ml
[10] = Intrinsic clearance in mouse hepatocytes assessed per million cells; assay type: ADME, cell-based, Hepatocyte; settings: read-out: CLH
Klebsiella pneumoniae [11] = assay: Antibacterial activity against Klebsiella pneumoniae expressing TEM-OSBL/CTX-M-14/OXA-48 by broth microdilution method; assay type: functional
Enterobacter [12] = assay: Inhibition of beta lactamase KPC in carbapenem-resistant Enterobacter assessed as meropenem minimum concentration required for antibacterial activity at 4 ug/ml by broth microdilution method (reference value: 4 ug/ml); settings: dose 4.0 µg/ml
[13] = Plasma protein binding in mouse assessed as fraction unbound by LC-MS/MS analysis; assay type: ADME, cell-free
[14] = Inhibition of bacteria beta lactamase OXA-23 assessed as decrease in enzyme activity using nitrocefin as substrate preincubated for 10 mins followed by substrate addition measured for 10 mins by fluorescence plate reader analysis
[15] = Half life in rat at 1 mg/kg, iv; assay type: ADME, organism-based; settings: in vivo
Enterobacter [16] = assay: Inhibition of beta lactamase OXA in carbapenem-resistant Enterobacter assessed as meropenem-induced antibacterial activity by measuring meropenem MIC50 at 4 ug/ml by broth microdilution method (reference value: 16 ug/ml); settings: dose 4.0 µg/ml
Cytochrome P450 2D6 = Cytochrome P450 2D6 (Homo sapiens, UniProt P10635); assay: Inhibition of CYP2D6 in human liver microsomes in presence of NADPH by LC-MS/MS analysis; assay type: ADME
Klebsiella pneumoniae [17] = assay: Potentiation of meropenem-induced antibacterial activity against Klebsiella Pneumoniae NR-48977 expressing KPC-2 infected in CD-1 mouse assessed as reduction in bacterial burden co administered with 300 mg/kg, iv meropenem; assay type: functional, organism-based; settings: dose mg/kg 25-100
[18] = AUC in rat at 1 mg/kg, iv; assay type: ADME, organism-based; parameters: dose 1 mg/kg; settings: in vivo
Cytochrome P450 3A4 = Cytochrome P450 3A4 (Homo sapiens, UniProt P08684); assay: Inhibition of CYP3A4 in human liver microsomes in presence of NADPH by LC-MS/MS analysis; assay type: ADME
Acinetobacter baumannii [19] = assay: Inhibition of beta lactamase OXA in carbapenem-resistant Acinetobacter baumannii assessed as meropenem-induced antibacterial activity by measuring meropenem MIC90 at 4 ug/ml by broth microdilution method (Rvb > 32 ug/ml); settings: dose 4.0 µg/ml
Enterobacter cloacae = assay: Antibacterial activity against Enterobacter cloacae expressing TEM-1/KPC-2 by broth microdilution method; assay type: functional
Cytochrome P450 2C9 = Cytochrome P450 2C9 (Homo sapiens, UniProt P11712); assay: Inhibition of CYP2C9 in human liver microsomes in presence of NADPH by LC-MS/MS analysis; assay type: ADME
[20] = Clearance in rat at 1 mg/kg, iv; assay type: ADME, organism-based; settings: in vivo
[21] = Stability in dog plasma assessed as parent compound remaining after 1 hr; assay type: ADME, cell-free, Canis lupus familiaris; settings: read-out: Stabilty
Acinetobacter baumannii [22] = assay: Potentiation of meropenem-induced antibacterial activity against Acinetobacter baumannii expressing OXA-23 assessed as meropenem MIC at 4 ug/ml by broth microdilution method (reference value: 32 ug/ml); assay type: functional; settings: dose 4 µg/ml
Acinetobacter baumannii [23] = assay: Antibacterial activity against Acinetobacter baumannii expressing OXA-23 by broth microdilution method; assay type: functional
[24] = Stability in human plasma assessed as parent compound remaining after 1 hr; assay type: ADME, cell-free; settings: read-out: Stabilty
[25] = Genotoxicity in Salmonella typhimurium by Ames test; assay type: toxicity; settings: salmonella enterica subsp. enterica serovar typhimurium
[26] = Toxicity in iv dosed rat administered as single dose; assay type: organism-based; settings: in vivo
[27] = Intrinsic clearance in dog hepatocytes assessed per million cells; assay type: ADME, cell-based, Canis lupus familiaris, Hepatocyte; settings: read-out: CLH
Enterobacter [28] = assay: Inhibition of beta lactamase OXA in carbapenem-resistant Enterobacter assessed as meropenem minimum concentration required for antibacterial activity at 4 ug/ml by broth microdilution method (reference value: 2 ug/ml); settings: dose 4.0 µg/ml
[29] = molecular target: Voltage-gated inwardly rectifying potassium channel KCNH2 (Homo sapiens, UniProt Q12809); assay: Inhibition of human ERG by patch-clamp assay
Enterobacter [30] = assay: Inhibition of beta lactamase OXA in carbapenem-resistant Enterobacter assessed as meropenem maximum concentration required for antibacterial activity at 4 ug/ml by broth microdilution method (Rvb > 32 ug/ml); settings: dose 4.0 µg/ml
[31] = Stability in rat plasma assessed as parent compound remaining after 1 hr; assay type: ADME, cell-free; settings: read-out: Stabilty
[32] = Intrinsic clearance in rat hepatocytes assessed per million cells; assay type: ADME, cell-based, Hepatocyte; settings: read-out: CLH
Acinetobacter baumannii [33] = assay: Inhibition of beta lactamase OXA in carbapenem-resistant Acinetobacter baumannii assessed as meropenem-induced antibacterial activity by measuring meropenem MIC50 at 4 ug/ml by broth microdilution method (Rvb > 32 ug/ml); settings: dose 4.0 µg/ml
[34] = Inhibition of beta lactamase TEM-1 in Enterobacter cloacae assessed as decrease in enzyme activity using nitrocefin as substrate preincubated for 10 mins followed by substrate addition measured for 10 mins by fluorescence plate reader analysis
Klebsiella pneumoniae [35] = assay: Antibacterial activity against Klebsiella pneumoniae expressing TEM-1/SHV-11/KPC-3 by broth microdilution method; assay type: functional
Klebsiella pneumoniae [36] = assay: Potentiation of meropenem-induced antibacterial activity against Klebsiella pneumoniae expressing SHV-11/OXA-121 assessed as meropenem MIC at 4 ug/ml by broth microdilution method (reference value: 16 ug/ml); assay type: functional; settings: dose 4 µg/ml
[37] = Inhibition of beta lactamase CTXM-15 in Enterobacter cloacae assessed as decrease in enzyme activity using nitrocefin as substrate preincubated for 10 mins followed by substrate addition measured for 10 mins by fluorescence plate reader analysis
Klebsiella pneumoniae [38] = assay: Potentiation of meropenem-induced antibacterial activity against Klebsiella pneumoniae expressing TEM-OSBL/CTX-M-14/OXA-48 assessed as meropenem MIC at 4 ug/ml by broth microdilution method (reference value: 16 ug/ml); assay type: functional; settings: dose 4 µg/ml
[39] = Plasma protein binding in human assessed as fraction unbound by LC-MS/MS analysis; assay type: ADME, cell-free
[40] = Inhibition of beta lactamase KPC-2 in Enterobacter cloacae assessed as decrease in enzyme activity using nitrocefin as substrate preincubated for 10 mins followed by substrate addition measured for 10 mins by fluorescence plate reader analysis

Cytochrome P450 3A4, sequence (P08684 whole entry): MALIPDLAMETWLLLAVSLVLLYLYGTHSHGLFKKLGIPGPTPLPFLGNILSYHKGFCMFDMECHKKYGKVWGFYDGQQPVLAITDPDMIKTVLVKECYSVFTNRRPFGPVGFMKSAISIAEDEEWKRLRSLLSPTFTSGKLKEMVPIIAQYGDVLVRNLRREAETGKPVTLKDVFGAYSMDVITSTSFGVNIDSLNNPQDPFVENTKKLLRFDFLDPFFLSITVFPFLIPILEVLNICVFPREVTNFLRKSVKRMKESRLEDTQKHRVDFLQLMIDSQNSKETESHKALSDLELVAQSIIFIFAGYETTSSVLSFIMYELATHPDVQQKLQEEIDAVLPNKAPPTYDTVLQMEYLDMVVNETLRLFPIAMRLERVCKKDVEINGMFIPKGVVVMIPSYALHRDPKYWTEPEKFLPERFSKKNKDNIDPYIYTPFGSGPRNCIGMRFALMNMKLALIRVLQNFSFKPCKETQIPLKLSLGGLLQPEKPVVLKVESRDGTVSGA
Cytochrome P450 2C9, sequence (P11712 whole entry): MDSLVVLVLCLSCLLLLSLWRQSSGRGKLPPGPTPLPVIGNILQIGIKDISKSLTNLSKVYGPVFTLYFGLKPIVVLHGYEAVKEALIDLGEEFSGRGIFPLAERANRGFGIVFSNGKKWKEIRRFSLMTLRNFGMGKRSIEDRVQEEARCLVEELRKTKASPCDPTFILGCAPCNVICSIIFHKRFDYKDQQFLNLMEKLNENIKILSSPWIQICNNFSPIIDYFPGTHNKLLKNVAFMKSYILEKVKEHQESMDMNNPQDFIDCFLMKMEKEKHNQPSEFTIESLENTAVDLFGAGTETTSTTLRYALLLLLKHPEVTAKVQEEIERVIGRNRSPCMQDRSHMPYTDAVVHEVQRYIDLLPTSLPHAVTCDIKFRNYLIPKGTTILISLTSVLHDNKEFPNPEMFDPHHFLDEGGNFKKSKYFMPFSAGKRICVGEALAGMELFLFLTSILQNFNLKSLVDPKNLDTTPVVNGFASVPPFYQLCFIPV
Cytochrome P450 2D6, sequence (P10635 whole entry): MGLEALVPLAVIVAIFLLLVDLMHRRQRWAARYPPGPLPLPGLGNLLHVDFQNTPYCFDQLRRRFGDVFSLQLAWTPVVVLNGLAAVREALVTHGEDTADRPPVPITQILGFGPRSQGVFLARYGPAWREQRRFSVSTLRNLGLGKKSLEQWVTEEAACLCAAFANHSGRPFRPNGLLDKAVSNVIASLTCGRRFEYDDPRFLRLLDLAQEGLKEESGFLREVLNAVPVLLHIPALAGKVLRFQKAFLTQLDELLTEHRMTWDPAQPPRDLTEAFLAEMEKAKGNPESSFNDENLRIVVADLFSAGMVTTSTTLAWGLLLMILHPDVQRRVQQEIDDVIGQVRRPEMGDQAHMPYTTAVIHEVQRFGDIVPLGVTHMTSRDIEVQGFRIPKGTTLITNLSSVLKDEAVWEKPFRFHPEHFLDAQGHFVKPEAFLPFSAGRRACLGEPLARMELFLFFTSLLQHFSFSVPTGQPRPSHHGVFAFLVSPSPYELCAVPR
Voltage-gated inwardly rectifying potassium channel KCNH2, sequence (Q12809 whole entry): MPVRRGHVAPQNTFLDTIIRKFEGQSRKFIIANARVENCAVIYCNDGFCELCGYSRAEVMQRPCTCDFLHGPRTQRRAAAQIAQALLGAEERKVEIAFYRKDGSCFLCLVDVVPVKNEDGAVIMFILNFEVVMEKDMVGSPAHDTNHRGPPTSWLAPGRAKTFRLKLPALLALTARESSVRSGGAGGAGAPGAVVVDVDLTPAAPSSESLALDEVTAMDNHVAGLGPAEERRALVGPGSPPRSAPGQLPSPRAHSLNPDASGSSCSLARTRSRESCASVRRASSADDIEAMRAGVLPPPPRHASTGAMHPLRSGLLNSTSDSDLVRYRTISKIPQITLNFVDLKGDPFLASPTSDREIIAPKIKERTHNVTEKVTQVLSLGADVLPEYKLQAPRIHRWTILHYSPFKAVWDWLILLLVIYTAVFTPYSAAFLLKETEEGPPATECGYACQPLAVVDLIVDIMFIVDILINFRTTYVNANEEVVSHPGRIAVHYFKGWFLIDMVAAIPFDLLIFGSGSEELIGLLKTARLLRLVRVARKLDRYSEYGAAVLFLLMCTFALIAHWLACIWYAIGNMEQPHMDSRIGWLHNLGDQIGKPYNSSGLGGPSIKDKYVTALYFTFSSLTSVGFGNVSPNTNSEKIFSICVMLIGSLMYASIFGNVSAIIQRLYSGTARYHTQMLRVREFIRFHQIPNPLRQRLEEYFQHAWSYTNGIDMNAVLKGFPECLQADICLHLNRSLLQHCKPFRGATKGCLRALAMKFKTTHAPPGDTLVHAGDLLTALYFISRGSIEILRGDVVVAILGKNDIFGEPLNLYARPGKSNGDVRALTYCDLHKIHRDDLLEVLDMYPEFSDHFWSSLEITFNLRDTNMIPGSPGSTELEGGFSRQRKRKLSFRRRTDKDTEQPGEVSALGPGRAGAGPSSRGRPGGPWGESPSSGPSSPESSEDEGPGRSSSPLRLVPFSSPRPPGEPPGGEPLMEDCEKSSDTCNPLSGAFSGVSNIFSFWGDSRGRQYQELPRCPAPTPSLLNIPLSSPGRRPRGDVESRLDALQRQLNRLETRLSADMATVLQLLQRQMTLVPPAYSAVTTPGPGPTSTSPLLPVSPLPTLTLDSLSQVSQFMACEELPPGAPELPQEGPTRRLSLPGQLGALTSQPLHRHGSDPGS

Q: With O=C1N2C[C@@H](CC[C@H]2F)N1OS(=O)(=O)[O-].[Na+] as the molecule, how does the IC50 [1] read?
A: 10 nM

Q: And the IC50 [2]?
A: 175 nM

Q: And the hepatocyte CLint [3]?
A: < 3.4 µL/min/1e6 cells

Q: What about the fraction unbound [4] of the same molecule?
A: > 0.93

Q: What about the MIC (Klebsiella pneumoniae [5]) of the same molecule?
A: 128 µg/mL

Q: And the remaining at 1 h [6]?
A: 90%

Q: What about the Activity (Acinetobacter baumannii [7]) of the same molecule?
A: > 32 µg/mL

Q: What about the Vd [8] of the same molecule?
A: 2.2 L/kg

Q: What about the MIC (Klebsiella pneumoniae [9]) of the same molecule?
A: 1 µg/mL

Q: What about the hepatocyte CLint [10] of the same molecule?
A: < 3.5 µL/min/1e6 cells

Q: And the MIC (Klebsiella pneumoniae [11])?
A: 64 µg/mL

Q: And the MIC (Enterobacter [12])?
A: < 0.03 µg/mL

Q: And the fraction unbound [13]?
A: > 0.93

Q: What about the IC50 [14] of the same molecule?
A: 50 nM

Q: And the half-life [15]?
A: 38.4 min

Q: And the MIC50 (Enterobacter [16])?
A: 0.12 µg/mL

Q: And the IC50 (Cytochrome P450 2D6)?
A: > 50000 nM

Q: And the Activity (Klebsiella pneumoniae [17])?
A: Dose-dependent effect

Q: And the AUC [18]?
A: 412 ng·h/mL

Q: What about the IC50 (Cytochrome P450 3A4) of the same molecule?
A: > 50000 nM

Q: What about the MIC90 (Acinetobacter baumannii [19]) of the same molecule?
A: 8 µg/mL

Q: And the MIC (Enterobacter cloacae)?
A: 128 µg/mL

Q: And the IC50 (Cytochrome P450 2C9)?
A: > 50000 nM

Q: And the clearance [20]?
A: 40 mL/min/kg

Q: What about the remaining at 1 h [21] of the same molecule?
A: 85%

Q: What about the MIC (Acinetobacter baumannii [22]) of the same molecule?
A: 2 µg/mL

Q: And the MIC (Acinetobacter baumannii [23])?
A: > 128 µg/mL

Q: What about the remaining at 1 h [24] of the same molecule?
A: 79%

Q: What about the Activity [25] of the same molecule?
A: Non-Toxic

Q: What about the MTD [26] of the same molecule?
A: ≥ 1000 mg/kg

Q: What about the hepatocyte CLint [27] of the same molecule?
A: < 3 µL/min/1e6 cells

Q: What about the MIC (Enterobacter [28]) of the same molecule?
A: < 0.03 µg/mL

Q: And the IC50 [29]?
A: > 100000 nM

Q: And the Activity (Enterobacter [30])?
A: 2 µg/mL

Q: What about the remaining at 1 h [31] of the same molecule?
A: 55%

Q: And the hepatocyte CLint [32]?
A: < 3.4 µL/min/1e6 cells

Q: What about the MIC50 (Acinetobacter baumannii [33]) of the same molecule?
A: 4 µg/mL

Q: And the IC50 [34]?
A: 1 nM

Q: And the MIC (Klebsiella pneumoniae [35])?
A: 128 µg/mL

Q: And the MIC (Klebsiella pneumoniae [36])?
A: 1 µg/mL

Q: And the IC50 [37]?
A: 2 nM

Q: What about the MIC (Klebsiella pneumoniae [38]) of the same molecule?
A: 0.25 µg/mL

Q: What about the fraction unbound [39] of the same molecule?
A: > 0.93

Q: And the IC50 [40]?
A: 19 nM
